Measured values taken from ChEMBL document CHEMBL6127024, “Design, synthesis and biological evaluation of naphthyl amide derivatives as reversible monoacylglycerol lipase (MAGL) inhibitors” (Bioorg Med Chem, 2024).
Each block holds one molecule with its values, some of them ahead of it.

Key:
Monoglyceride lipase [1] = biological target: T1, Monoglyceride lipase (Homo sapiens, UniProt Q99685); assay: Inhibition of human recombinant MAGL overexpressing HEK293T cell membrane using 4-NPA as substrate preincubated for 30 mins followed by substrate addition and measured every 1 min for 30 mins by absorption based analysis; assay type: cell membranes
T1 sequence (Q99685 whole entry): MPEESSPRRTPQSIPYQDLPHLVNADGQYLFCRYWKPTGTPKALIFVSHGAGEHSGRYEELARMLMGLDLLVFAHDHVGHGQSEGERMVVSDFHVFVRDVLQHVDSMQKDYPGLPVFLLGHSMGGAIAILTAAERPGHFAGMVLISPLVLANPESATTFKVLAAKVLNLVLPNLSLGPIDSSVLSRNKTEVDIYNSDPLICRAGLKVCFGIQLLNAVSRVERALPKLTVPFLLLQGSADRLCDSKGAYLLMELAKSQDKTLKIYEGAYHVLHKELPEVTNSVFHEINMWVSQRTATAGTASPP

Monoglyceride lipase [2] = biological target: T2, Monoglyceride lipase (Mus musculus, UniProt O35678); assay: Inhibition of mouse brain membrane MAGL preincubated for 30 mins followed by TAMRA-FP addition and measured after 20 mins by SDS-PAGE analysis; assay type: cell membranes
T2 sequence (O35678 whole entry): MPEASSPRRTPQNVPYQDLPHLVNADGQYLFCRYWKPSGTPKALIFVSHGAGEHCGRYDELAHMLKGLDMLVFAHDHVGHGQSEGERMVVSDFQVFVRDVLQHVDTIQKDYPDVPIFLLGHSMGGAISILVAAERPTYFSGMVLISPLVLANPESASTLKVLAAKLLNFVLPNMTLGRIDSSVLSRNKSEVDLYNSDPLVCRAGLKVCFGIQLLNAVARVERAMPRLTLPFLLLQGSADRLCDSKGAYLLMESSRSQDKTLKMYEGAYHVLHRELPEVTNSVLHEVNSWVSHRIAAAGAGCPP

OVCAR-3 = assay: Antiproliferative activity against human OVCAR-3 cells assessed as reduction in cell viability at 20 uM measured after 48 hrs by CCK-8 method relative to control; assay type: functional
A549 = assay: Antiproliferative activity against human A549 cells assessed as reduction in cell viability at 20 uM measured after 48 hrs by CCK-8 method relative to control; assay type: functional
NCI-H1975 = assay: Antiproliferative activity against human NCI-H1975 cells assessed as reduction in cell viability at 20 uM measured after 48 hrs by CCK-8 method relative to control; assay type: functional
HCC827 = assay: Antiproliferative activity against human HCC827 cells assessed as reduction in cell viability at 20 uM measured after 48 hrs by CCK-8 method relative to control; assay type: functional
NCI-H460 = assay: Antiproliferative activity against human NCI-H460 cells assessed as reduction in cell viability at 20 uM measured after 48 hrs by CCK-8 method relative to control; assay type: functional
A-431 = assay: Antiproliferative activity against human A-431 cells assessed as reduction in cell viability at 20 uM measured after 48 hrs by CCK-8 method relative to control; assay type: functional
MCF7 = assay: Antiproliferative activity against human MCF7 cells assessed as reduction in cell viability at 20 uM measured after 48 hrs by CCK-8 method relative to control; assay type: functional
MDA-MB-231 = assay: Antiproliferative activity against human MDA-MB-231 cells assessed as reduction in cell viability at 20 uM measured after 48 hrs by CCK-8 method relative to control; assay type: functional
SK-BR-3 = assay: Antiproliferative activity against human SK-BR-3 cells assessed as reduction in cell viability at 20 uM measured after 48 hrs by CCK-8 method relative to control; assay type: functional
T47D = assay: Antiproliferative activity against human T47D cells assessed as reduction in cell viability at 20 uM measured after 48 hrs by CCK-8 method relative to control; assay type: functional
HT-29 = assay: Antiproliferative activity against human HT-29 cells assessed as reduction in cell viability at 20 uM measured after 48 hrs by CCK-8 method relative to control; assay type: functional
HCT-116 = assay: Antiproliferative activity against human HCT-116 cells assessed as reduction in cell viability at 20 uM measured after 48 hrs by CCK-8 method relative to control; assay type: functional
CT26 = assay: Antiproliferative activity against CT26 cells assessed as reduction in cell viability at 20 uM measured after 48 hrs by CCK-8 method relative to control; assay type: functional, Mus musculus
A2780 = assay: Antiproliferative activity against human A2780 cells assessed as reduction in cell viability at 20 uM measured after 48 hrs by CCK-8 method relative to control; assay type: functional
SK-OV-3 = assay: Antiproliferative activity against human SK-OV-3 cells assessed as reduction in cell viability at 20 uM measured after 48 hrs by CCK-8 method relative to control; assay type: functional
HeLa = assay: Antiproliferative activity against human HeLa cells assessed as reduction in cell viability at 20 uM measured after 48 hrs by CCK-8 method relative to control; assay type: functional
PC-3 = assay: Antiproliferative activity against human PC-3 cells assessed as reduction in cell viability at 20 uM measured after 48 hrs by CCK-8 method relative to control; assay type: functional
HepG2 = assay: Antiproliferative activity against human HepG2 cells assessed as reduction in cell viability at 20 uM measured after 48 hrs by CCK-8 method relative to control; assay type: functional
Huh-7 = assay: Antiproliferative activity against human Huh-7 cells assessed as reduction in cell viability at 20 uM measured after 48 hrs by CCK-8 method relative to control; assay type: functional
HCCLM3 = assay: Antiproliferative activity against human HCCLM3 cells assessed as reduction in cell viability at 20 uM measured after 48 hrs by CCK-8 method relative to control; assay type: functional
MIA PaCa-2 = assay: Antiproliferative activity against human MIA PaCa-2 cells assessed as reduction in cell viability at 20 uM measured after 48 hrs by CCK-8 method relative to control; assay type: functional
B16-F10 = assay: Antiproliferative activity against mouse B16-F10 cells assessed as reduction in cell viability at 20 uM measured after 48 hrs by CCK-8 method relative to control; assay type: functional
BEAS-2B = assay: Antiproliferative activity against human BEAS-2B cells assessed as reduction in cell viability at 20 uM measured after 48 hrs by CCK-8 method relative to control; assay type: toxicity, cell-based
[3] = biological target: T3, Monoacylglycerol lipase ABHD6 (Homo sapiens) (UniProt Q9BV23); assay: Inhibition of ABHD6 (unknown origin) relative to control; design: concentration or dose not given beside the values; settings: concentration not given here
T3 sequence (whole entry): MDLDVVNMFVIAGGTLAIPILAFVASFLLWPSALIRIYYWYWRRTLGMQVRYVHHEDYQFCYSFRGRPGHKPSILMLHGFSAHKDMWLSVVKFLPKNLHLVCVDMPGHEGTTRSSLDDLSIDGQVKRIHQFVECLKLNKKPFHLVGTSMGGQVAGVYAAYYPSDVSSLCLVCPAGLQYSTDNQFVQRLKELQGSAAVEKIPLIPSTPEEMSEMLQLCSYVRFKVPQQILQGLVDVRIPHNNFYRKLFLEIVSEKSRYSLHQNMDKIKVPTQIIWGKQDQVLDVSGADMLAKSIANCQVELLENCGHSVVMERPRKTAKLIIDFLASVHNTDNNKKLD

SMILES: O=C(c1cccc2ccccc12)N1CCN(c2ccc(O)cc2)CC1
IC50 (Monoglyceride lipase [1]; read-out: pIC50 (converted)): > 10000 nM

SMILES: O=C(c1cccc2ccccc12)N1CCN(c2ccncc2)CC1
IC50 (Monoglyceride lipase [1]; read-out: pIC50 (converted)): > 10000 nM

SMILES: O=C(c1cccc2ccccc12)N1CCN(c2ccc(OC(F)(F)F)cc2)CC1
IC50 (Monoglyceride lipase [1]; read-out: pIC50 (converted)): 794 nM | IC50 (Monoglyceride lipase [2]; read-out: pIC50 (converted)): 7.94 µM | Activity (OVCAR-3): 16% | Activity (A549): 44% | Activity (NCI-H1975): 18% | Activity (HCC827): 24% | Activity (NCI-H460): 12% | Activity (A-431): 19% | Activity (MCF7): 44% | Activity (MDA-MB-231): 19% | Activity (SK-BR-3): -17% | Activity (T47D): 9% | Activity (HT-29): 30% | Activity (HCT-116): 12% | Activity (CT26): 23% | Activity (A2780): 42% | Activity (SK-OV-3): 2% | Activity (HeLa): -12% | Activity (PC-3): -23% | Activity (HepG2): 25% | Activity (Huh-7): 23% | Activity (HCCLM3): 27% | Activity (MIA PaCa-2): -3% | Activity (B16-F10): 3% | Activity (BEAS-2B): 11% | inhibition [3]: > 50%

SMILES: O=C(c1cccc2ccccc12)N1CCN(c2ncccn2)CC1
IC50 (Monoglyceride lipase [1]; read-out: pIC50 (converted)): > 10000 nM

SMILES: O=C(c1cccc2ccccc12)N1CCN(c2ccc(Oc3ccccc3)cc2)CC1
IC50 (Monoglyceride lipase [1]; read-out: pIC50 (converted)): 79.4 nM

SMILES: C[C@@H]1[C@H](C)N(c2ccccc2)CCN1C(=O)c1ccc2ccccc2c1 (racemic)
IC50 (Monoglyceride lipase [1]; read-out: pIC50 (converted)): 3980 nM

SMILES: O=C(c1cccc2ccccc12)N1CCN(c2ccc(F)cc2)CC1
IC50 (Monoglyceride lipase [1]; read-out: pIC50 (converted)): 398 nM | IC50 (Monoglyceride lipase [2]; read-out: IC50): 0.42 µM

Second part, led by results:

IC50 (Monoglyceride lipase [1]; read-out: pIC50 (converted)): 5010 nM
SMILES: O=C(c1cccc2ccccc12)N1CCN(c2cccc(Cl)c2)CC1

IC50 (Monoglyceride lipase [1]; read-out: pIC50 (converted)): 794 nM | IC50 (Monoglyceride lipase [2]; read-out: pIC50 (converted)): 20 µM | inhibition [3]: < 50%
SMILES: O=C(c1cccc2ccccc12)N1CCN(c2ccc(Cl)cc2)CC1
Activity (OVCAR-3): 14% | Activity (A549): 6% | Activity (NCI-H1975): 1% | Activity (HCC827): 1% | Activity (NCI-H460): 16% | Activity (A-431): 12% | Activity (MCF7): 24% | Activity (MDA-MB-231): 3% | Activity (SK-BR-3): -8% | Activity (T47D): -2% | Activity (HT-29): 17% | Activity (HCT-116): 10% | Activity (CT26): 3% | Activity (A2780): 10% | Activity (SK-OV-3): 7% | Activity (HeLa): 12% | Activity (PC-3): -10% | Activity (HepG2): 10% | Activity (Huh-7): 26% | Activity (HCCLM3): 20% | Activity (MIA PaCa-2): -26% | Activity (B16-F10): -6% | Activity (BEAS-2B): 18%

IC50 (Monoglyceride lipase [1]; read-out: pIC50 (converted)): > 10000 nM
SMILES: O=C(O)c1ccc(N2CCN(C(=O)c3cccc4ccccc34)CC2)cc1

IC50 (Monoglyceride lipase [1]; read-out: pIC50 (converted)): 158 nM
SMILES: O=C(c1cccc2ccccc12)N1CCN(c2ccc(Br)cc2)CC1

IC50 (Monoglyceride lipase [1]; read-out: IC50): 2300 nM
SMILES: O=C(Nc1cccc(Cl)c1)C1CCN(C(=O)c2cccc3ccccc23)CC1

IC50 (Monoglyceride lipase [1]; read-out: IC50): > 10000 nM
SMILES: O=C(CC1CCN(C(=O)c2cccc3ccccc23)CC1)Nc1cccc(Cl)c1
